Measurements reported in patent publication US10793574B2, “TYK2 inhibitors and uses thereof” (Nimbus Lakshmi, Inc., priority 2016, dated 2020).

What was measured:
[1] = target: TYK2 JH1 kinase (Homo sapiens (Human), UniProt P29597); assay: Tyk2 radioactive kinase assay; assay type: biochemical; conditions: active kinase assay, ATP 10 μM
Procedure: (§1) Peptide substrate, [KKSRGDYMTMQIG], (20 μM) is prepared in reaction buffer (20 mM Hepes pH 7.5, 10 mM MgCl2, 1 mM EGTA, 0.02% Brij35, 0.02 mg/mL BSA, 0.1 mM […], 2 mM DTT, 1% DMSO. TYK2 (Invitrogen) kinase is added, followed by compounds in DMSO. 33PATP is added to initiate the reaction in ATP at 10 μM. Kinase reaction is incubated for 120 min at room temp and reactions are spotted onto P81 ion exchange paper (Whatman #3698-915), and then washed extensively in 0.75% phosphoric acid, prior to reading the radioactivity counts. For JAK2 (Invitrogen) kinase assay the peptide substrate poly[Glu:Tyr](4:1), 0.2 mg/ml is used, in the reaction carried out the same as for TYK2.

[2] = target: JAK2 JH1 kinase (Homo sapiens (Human), UniProt O60674); assay: JAK2 radioactive kinase assay; assay type: biochemical; conditions: active kinase assay, ATP 10 μM
Sequence of JAK2 JH1 kinase (O60674 808-1132): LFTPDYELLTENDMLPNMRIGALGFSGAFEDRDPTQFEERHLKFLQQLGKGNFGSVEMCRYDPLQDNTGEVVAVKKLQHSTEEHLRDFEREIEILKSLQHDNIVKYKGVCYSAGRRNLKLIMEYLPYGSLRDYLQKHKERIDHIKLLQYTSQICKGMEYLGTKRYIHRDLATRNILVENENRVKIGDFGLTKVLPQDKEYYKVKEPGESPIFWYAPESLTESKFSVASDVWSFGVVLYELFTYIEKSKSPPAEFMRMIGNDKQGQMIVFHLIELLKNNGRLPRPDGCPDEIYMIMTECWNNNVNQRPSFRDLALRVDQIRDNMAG
Procedure: as §1

Sequence of TYK2 JH1 kinase (P29597 833-1187): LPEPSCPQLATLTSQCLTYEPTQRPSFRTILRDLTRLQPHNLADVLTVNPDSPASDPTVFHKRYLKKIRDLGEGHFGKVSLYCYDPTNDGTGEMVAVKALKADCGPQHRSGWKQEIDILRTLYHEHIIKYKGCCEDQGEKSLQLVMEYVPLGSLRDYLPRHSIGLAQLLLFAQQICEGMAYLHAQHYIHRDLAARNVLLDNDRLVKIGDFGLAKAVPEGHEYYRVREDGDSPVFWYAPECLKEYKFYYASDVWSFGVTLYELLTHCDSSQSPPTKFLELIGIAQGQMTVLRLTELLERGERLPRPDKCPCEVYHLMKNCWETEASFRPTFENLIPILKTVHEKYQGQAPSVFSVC

Row | inhibitory activity against TYK2 JH1 kinase function [1] | SMILES | inhibitory activity against JAK2 JH1 kinase function [2]
1 | no detectable inhibitory activity | COc1c(Nc2cc(NC(=O)C3CC3)nc3[nH]n(C)c(=O)c23)cccc1-c1nnn(C)n1 [Compound I-1, N-(4-((2-methoxy-3-(2-methyl-2H-tetrazol-5-yl)phenyl)amino)-2-methyl-3-oxo-2,3-dihydro-1H-pyrazolo[3,4-b]pyridin-6-yl)cyclopropanecarboxamide] | 
2 | no detectable inhibitory activity | COCc1ccnc(Nc2cc(Nc3cccc(-c4nnn(C)n4)c3OC)c3c(=O)n(C)[nH]c3n2)c1 [Compound I-2, 4-((2-methoxy-3-(2-methyl-2H-tetrazol-5-yl)phenyl)amino)-6-((4-(methoxymethyl)pyridin-2-yl)amino)-2-methyl-1,2-dihydro-3H-pyrazolo[3,4-b]pyridin-3-one] | 
3 | no detectable inhibitory activity | COc1c(Nc2cc(NC(=O)C3CC3)ncc2-c2ncc(F)s2)cccc1-c1nnn(C)n1 [VIII-2, N-(5-(5-fluorothiazol-2-yl)-4-((2-methoxy-3-(2-methyl-2H-tetrazol-5-yl)phenyl)amino)pyridin-2-yl)cyclopropanecarboxamide] | no detectable inhibitory activity
4 | no detectable inhibitory activity | COC(=O)c1nnc(-c2cnc(NC(=O)C3CC3)cc2Nc2cccc(-c3ncn(C)n3)c2OC)o1 [VIII-4, methyl 5-(6-(cyclopropanecarboxamido)-4-((2-methoxy-3-(1-methyl-1H-1,2,4-triazol-3-yl)phenyl)amino)pyridin-3-yl)-1,3,4-oxadiazole-2-carboxylate] | no detectable inhibitory activity

Row | SMILES | inhibitory activity against TYK2 JH1 kinase function [1] | inhibitory activity against JAK2 JH1 kinase function [2]
5 | COc1c(Nc2cc(NC(=O)C3CC3)ncc2-c2ncc(Cl)s2)cccc1-c1nnn(C)n1 [VIII-1, N-(5-(5-chlorothiazol-2-yl)-4-((2-methoxy-3-(2-methyl-2H-tetrazol-5-yl)phenyl)amino)pyridin-2-yl)cyclopropanecarboxamide] | no detectable inhibitory activity | no detectable inhibitory activity
6 | COc1c(Nc2cc(NC(=O)C3CC3)ncc2-c2nnc(C(F)(F)F)o2)cccc1-c1ncn(C)n1 [VIII-3, N-(4-((2-methoxy-3-(1-methyl-1H-1,2,4-triazol-3-yl)phenyl)amino)-5-(5-(trifluoromethyl)-1,3,4-oxadiazol-2-yl)pyridin-2-yl)cyclopropanecarboxamide] | no detectable inhibitory activity | no detectable inhibitory activity
